We go through three molecules from BindingDB's records for doi:10.1021/jm00128a028 (Roche Research Center, 1989).

In the experiment the target is Thromboxane-A synthase (Rattus norvegicus) (UniProt P49430). Put plainly: Inhibitory activity to inhibit Inophore-induced arachidonic acid metabolism (inhibition of TXB2 formation) in rat.
Sequence of Thromboxane-A synthase (Rattus norvegicus) (P49430 whole entry, looked up): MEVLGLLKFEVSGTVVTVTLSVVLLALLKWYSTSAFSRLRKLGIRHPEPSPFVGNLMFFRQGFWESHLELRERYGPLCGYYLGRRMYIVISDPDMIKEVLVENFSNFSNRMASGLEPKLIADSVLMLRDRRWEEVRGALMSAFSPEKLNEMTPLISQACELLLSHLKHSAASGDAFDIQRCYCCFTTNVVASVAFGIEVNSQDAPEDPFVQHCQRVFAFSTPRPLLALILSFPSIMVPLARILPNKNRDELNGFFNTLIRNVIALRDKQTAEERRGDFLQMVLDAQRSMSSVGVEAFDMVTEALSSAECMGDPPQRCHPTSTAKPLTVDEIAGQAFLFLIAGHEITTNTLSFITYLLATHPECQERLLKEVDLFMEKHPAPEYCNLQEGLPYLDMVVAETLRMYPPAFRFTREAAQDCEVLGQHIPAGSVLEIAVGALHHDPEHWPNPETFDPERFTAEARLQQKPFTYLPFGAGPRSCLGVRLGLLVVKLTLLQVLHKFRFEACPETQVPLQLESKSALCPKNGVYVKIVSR
As a reminder, the IC50 is the concentration at which inhibition is half-maximal. Lower therefore signals higher potency. `CCCc1c(OCCCCCOc2cc3c(cc2C(C)=O)CCC(C(=O)O)O3)ccc(C(C)=O)c1O` (stereo not drawn) [Ro-23-3544] displayed an IC50 of 6 µM. To `CC(C)c1ccc2c(c1)c(SC(C)(C)C)c(CC(C)(C)C(=O)O)n2Cc1ccc(Cl)cc1` belongs 2 µM; to `COc1ccc2c(c1)c(CC(=O)O)c(C)n2C(=O)c1ccc(Cl)cc1` [indometacin], 0.1 µM.
